Results as given in patent publication US12667547B2 (MESHABERASE, LLC, priority 2013, dated 2026).
Entries after “also recorded” stand apart in the source; their conditions may differ. Read-outs that look alike come from different tables or passages of the source.

How the values were obtained:
[1] = cited from earlier work
[2] = General condition, body weight, serum enzymes and histology of treated tumor-bearing mice; assay type: in vivo
Description: (§1) Measurement of metastasis, survival and body weight of animals implanted with orthotopic pancreatic cancer in mouse model: Female nude nu/nu mice between ages 5 and 6 weeks were maintained in a barrier facility in HEPA-filtered rack. All animal studies were conducted under approved protocol #2000-06 by the CBER Institutional Animal Care and Use Committee in accordance with the principles and procedures outlined in the NIH Guideline for the Care and Use of Laboratory Animals. For orthotopic tumor cell injection, the pancreas was carefully exposed, and 2.0×10^6 of MIA-PaCa2 and H5766T cells were injected into the organ. The pancreas was then returned to the peritoneal cavity, and the abdominal wall and skin were closed with skin clips (29, 30). […] At day 30, mice were sacrificed and the number of metastatic nodules visible by naked eye and whose sizes were >5 mm in diameter counted. The total weight of primary tumor and metastatic nodules were also measured. Pictures were taken immediately after sacrificing the animals. Additionally, mouse survival time was monitored in an independent experiment. Mice were sacrificed when they had severe ascites or cachexia.
Measurement of enzymes in mouse serum: Mouse blood was collected from the tail vein. Serum levels of alanine aminotransferase (ALT), creatine kinase (CK), aldolase and creatinine (Cr) were measured using different kits obtained from Pointe Scientific, Inc. (Canton, MI) and Caldon Biotech, Inc. (Vista, Ca), following the manufacturer's instruction.
The general condition and body weight of mice throughout the experimental period was also monitored. […] Similarly, there was no alteration in serum enzymes representing liver function (ALT) or muscle damage (Aldolase) nor evidence of skeletal muscle damage or kidney function (creatinine kinase and creatinine) in the cysteamine-treated groups.

MMP-14 [3] = assay: qRT-PCR of MMP-14 mRNA in pancreatic cancer cell lines; assay type: cell-based, human; conditions: highest concentration, in vitro
Description: (§2) Quantitative Reverse transcription-PCR (qRT-PCR): qRT-PCR was performed as described previously using QuantiTect SYBR Green PCR Kits (QIAGEN, Valencia, CA) (28). Gene specific primers for human MMP-9, MMP-12, MMP-14 and I3-actin were either purchased from QIAGEN or synthesized at the CBER core facility. Gene expression was normalized to β-actin before the fold change in gene expression was determined.
(§3) Since MMP-9 plays a central role in pancreatic cancer invasion, MMP-9 mRNA and protein levels were examined in both cell lines.

MMP-12 [4] = assay: qRT-PCR of MMP-12 mRNA in pancreatic cancer cell lines; assay type: cell-based, human; conditions: highest concentration, in vitro
Description: as §2, §3

[5] = tested on: pancreatic cancer cell lines; assay: Matrigel invasion assay; assay type: cell-based, human
Description: Matrigel invasion assay: Cell invasion was assayed in BD BioCoat Matrigel invasion chambers (BD Biosciences; 24 wells, 8 μm pore size) as described previously (26). […] Non-invaded cells were removed from the upper surface of the membrane with a cotton swab, and cells on the lower surface of the membrane were fixed and stained with H&E. Three random fields per chamber were counted. Data were shown as mean±S.D. of triplicate determinations. […] For this assay, ten different pancreatic cancer cell lines in a matrigel invasion chamber were used.

MMP-9 [6] = assay: qRT-PCR of MMP-9 mRNA in pancreatic cancer cell lines; assay type: cell-based, human; conditions: highest concentration (5 mM), both cell lines
Description: as §2, §3

H5766T tumor = assay: Orthotopic pancreatic cancer mouse model: metastasis, ascites, survival; assay type: in vivo, mice
Description: as §1
(§4) At day 30, the number and weight of the primary tumor and metastatic nodules were measured. […] The survival of mice among different treatment groups was also determined.

MIA-PaCa2 tumor = assay: as above; assay type: in vivo, mice
Description: as §1, §4

MMP-9 [7] = assay: qRT-PCR of MMP-9 mRNA in primary orthotopic tumors; assay type: in vivo, mice; conditions: tumors harvested day 30
Description: as §2

MMPs [8] = assay: MMP activity in pancreatic cancer cell lines (fluorogenic peptide substrate); assay type: cell-based, human; conditions: two representative cell lines, concentration-dependent
Description: (§5) Measurement of MMP activity: MMPs activity was measured by Mca-KPLGL-Dpa-AR-NH2 Fluorogenic Peptide Substrate (R&D systems, Emeryville, CA). Total cell protein from each pancreatic cancer cell line was collected using lysis buffer (containing 50 mM Tris-HCl, 10 mM CaCl2, 0.05% Brij35 and 0.25% Triton-X) without an MMP inhibitor. Substrate and 10 μg of total cell protein in the buffer were mixed in a black-wall 96-well plate. After 1 hour incubation, fluorescence units were determined using excitation/emission=320/405 nm.

MMP-9 [9] = target: T1, MMP-9 (Homo sapiens, UniProt P14780); assay: MMP profiling, IC50 (fluorimetric MMP inhibitor profiling kit); assay type: biochemical
T1 construct: purchased Enzo Life Science, Farmingdale, NY
T1 sequence (P14780 94-707): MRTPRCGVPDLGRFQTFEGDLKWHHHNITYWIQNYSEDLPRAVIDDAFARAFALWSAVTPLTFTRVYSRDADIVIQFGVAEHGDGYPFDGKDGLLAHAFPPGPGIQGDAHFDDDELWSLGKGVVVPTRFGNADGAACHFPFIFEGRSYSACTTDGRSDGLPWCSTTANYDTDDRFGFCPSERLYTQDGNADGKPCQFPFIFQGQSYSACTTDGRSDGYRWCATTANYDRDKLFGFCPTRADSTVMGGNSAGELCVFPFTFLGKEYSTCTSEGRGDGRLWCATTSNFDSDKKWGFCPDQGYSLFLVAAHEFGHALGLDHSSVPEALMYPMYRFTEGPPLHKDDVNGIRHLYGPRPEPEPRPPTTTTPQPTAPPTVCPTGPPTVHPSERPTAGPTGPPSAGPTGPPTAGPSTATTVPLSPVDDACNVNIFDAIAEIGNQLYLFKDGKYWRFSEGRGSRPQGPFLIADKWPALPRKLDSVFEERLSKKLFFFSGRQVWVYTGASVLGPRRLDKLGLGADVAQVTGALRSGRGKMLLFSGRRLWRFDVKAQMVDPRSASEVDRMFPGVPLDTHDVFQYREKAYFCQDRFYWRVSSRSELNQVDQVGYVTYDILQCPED
Description: (§6) After administration of fluorogenic substrate, a velocity of fluorescent increase was measured using excitation/emission=320/405 nm.

MMP-8 = target: T2, MMP-8 (Homo sapiens, UniProt P22894); assay: as above; assay type: biochemical
T2 construct: purchased Enzo Life Science, Farmingdale, NY
T2 sequence (P22894 101-467): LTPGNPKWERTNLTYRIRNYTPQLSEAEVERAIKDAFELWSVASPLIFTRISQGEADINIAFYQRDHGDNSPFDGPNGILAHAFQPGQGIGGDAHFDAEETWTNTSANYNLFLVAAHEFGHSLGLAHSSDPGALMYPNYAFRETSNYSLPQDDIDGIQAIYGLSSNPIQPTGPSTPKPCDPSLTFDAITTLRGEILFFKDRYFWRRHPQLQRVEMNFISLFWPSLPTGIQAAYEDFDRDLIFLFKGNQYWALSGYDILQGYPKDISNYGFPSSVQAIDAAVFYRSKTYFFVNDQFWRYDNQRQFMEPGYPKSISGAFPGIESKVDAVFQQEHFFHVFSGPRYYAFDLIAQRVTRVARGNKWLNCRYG
Description: as §6

MMP-10 = target: T3, MMP-10 (Homo sapiens, UniProt P09238); assay: as above; assay type: biochemical
T3 construct: purchased Enzo Life Science, Farmingdale, NY
T3 sequence (P09238 99-476): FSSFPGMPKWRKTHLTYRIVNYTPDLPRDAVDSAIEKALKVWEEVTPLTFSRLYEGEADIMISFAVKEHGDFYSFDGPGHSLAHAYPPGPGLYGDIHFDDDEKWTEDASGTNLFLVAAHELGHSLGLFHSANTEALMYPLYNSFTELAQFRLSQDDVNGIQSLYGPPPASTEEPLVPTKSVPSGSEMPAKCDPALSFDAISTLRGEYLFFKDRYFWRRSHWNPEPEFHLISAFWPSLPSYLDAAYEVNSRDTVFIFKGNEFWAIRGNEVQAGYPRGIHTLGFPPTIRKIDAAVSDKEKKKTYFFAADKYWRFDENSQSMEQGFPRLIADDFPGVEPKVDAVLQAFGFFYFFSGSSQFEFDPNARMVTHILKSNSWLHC
Description: as §6

MMP-13 = target: T4, MMP-13 (Homo sapiens, UniProt P45452); assay: as above; assay type: biochemical
T4 construct: purchased Enzo Life Science, Farmingdale, NY
Description: as §6

MMP-7 = target: T5, MMP-7 (Homo sapiens, UniProt P09237); assay: as above; assay type: biochemical
T5 construct: purchased Enzo Life Science, Farmingdale, NY
T5 sequence (P09237 95-267): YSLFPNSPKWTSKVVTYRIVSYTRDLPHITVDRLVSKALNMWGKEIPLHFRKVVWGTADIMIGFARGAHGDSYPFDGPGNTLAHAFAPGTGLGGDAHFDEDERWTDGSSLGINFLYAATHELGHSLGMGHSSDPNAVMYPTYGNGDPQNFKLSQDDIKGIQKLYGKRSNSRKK
Description: as §6

MMP-14 [10] = target: T6, MMP-14 (Homo sapiens, UniProt P50281); assay: as above; assay type: biochemical
T6 construct: purchased Enzo Life Science, Farmingdale, NY
Description: as §6

MMP-2 = target: T7, MMP-2 (Homo sapiens, UniProt P08253); assay: as above; assay type: biochemical
T7 construct: purchased Enzo Life Science, Farmingdale, NY
T7 sequence (P08253 110-660): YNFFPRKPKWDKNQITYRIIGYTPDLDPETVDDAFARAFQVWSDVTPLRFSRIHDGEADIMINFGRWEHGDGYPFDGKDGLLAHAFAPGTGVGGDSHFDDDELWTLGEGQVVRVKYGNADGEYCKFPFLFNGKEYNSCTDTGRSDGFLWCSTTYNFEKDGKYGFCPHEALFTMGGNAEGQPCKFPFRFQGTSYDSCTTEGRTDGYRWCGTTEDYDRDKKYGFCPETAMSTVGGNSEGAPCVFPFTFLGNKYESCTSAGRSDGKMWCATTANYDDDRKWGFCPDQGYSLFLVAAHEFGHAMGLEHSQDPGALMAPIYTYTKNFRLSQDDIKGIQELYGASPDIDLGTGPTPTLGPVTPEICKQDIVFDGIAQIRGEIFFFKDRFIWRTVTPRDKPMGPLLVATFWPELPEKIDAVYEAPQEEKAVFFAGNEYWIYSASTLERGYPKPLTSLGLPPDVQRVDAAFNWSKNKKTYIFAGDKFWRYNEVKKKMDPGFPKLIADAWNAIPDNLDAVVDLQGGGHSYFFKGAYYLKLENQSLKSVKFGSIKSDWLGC
Description: as §6

MMP-3 = target: T8, MMP-3 (Homo sapiens, UniProt P08254); assay: as above; assay type: biochemical
T8 construct: purchased Enzo Life Science, Farmingdale, NY
T8 sequence (P08254 100-477): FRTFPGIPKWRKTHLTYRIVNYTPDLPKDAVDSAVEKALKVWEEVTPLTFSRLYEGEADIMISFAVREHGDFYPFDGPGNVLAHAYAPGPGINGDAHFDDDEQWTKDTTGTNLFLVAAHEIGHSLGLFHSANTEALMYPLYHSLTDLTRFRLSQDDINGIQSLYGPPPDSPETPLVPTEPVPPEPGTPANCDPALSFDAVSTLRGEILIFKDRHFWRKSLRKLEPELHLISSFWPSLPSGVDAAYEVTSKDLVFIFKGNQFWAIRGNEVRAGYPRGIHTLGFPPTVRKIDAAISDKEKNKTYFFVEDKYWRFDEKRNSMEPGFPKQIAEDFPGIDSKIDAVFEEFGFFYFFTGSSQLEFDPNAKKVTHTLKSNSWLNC
Description: as §6

MMP-1 = target: T9, MMP-1 (Homo sapiens, UniProt P03956); assay: as above; assay type: biochemical
T9 construct: purchased Enzo Life Science, Farmingdale, NY
T9 sequence (P03956 100-469): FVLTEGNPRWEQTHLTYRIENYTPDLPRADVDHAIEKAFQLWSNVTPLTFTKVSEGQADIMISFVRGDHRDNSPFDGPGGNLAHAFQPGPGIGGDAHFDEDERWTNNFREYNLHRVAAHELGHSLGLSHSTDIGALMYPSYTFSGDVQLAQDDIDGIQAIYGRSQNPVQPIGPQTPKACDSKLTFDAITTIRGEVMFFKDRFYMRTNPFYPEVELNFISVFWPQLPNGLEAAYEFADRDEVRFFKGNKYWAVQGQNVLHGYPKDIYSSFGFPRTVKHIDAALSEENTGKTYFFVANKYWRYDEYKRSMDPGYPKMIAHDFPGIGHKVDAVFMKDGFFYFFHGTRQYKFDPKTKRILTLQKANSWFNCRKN
Description: as §6

MMP-12 [11] = target: T10, MMP-12 (Homo sapiens, UniProt P39900); assay: as above; assay type: biochemical
T10 construct: purchased Enzo Life Science, Farmingdale, NY
T10 sequence (P39900 106-470): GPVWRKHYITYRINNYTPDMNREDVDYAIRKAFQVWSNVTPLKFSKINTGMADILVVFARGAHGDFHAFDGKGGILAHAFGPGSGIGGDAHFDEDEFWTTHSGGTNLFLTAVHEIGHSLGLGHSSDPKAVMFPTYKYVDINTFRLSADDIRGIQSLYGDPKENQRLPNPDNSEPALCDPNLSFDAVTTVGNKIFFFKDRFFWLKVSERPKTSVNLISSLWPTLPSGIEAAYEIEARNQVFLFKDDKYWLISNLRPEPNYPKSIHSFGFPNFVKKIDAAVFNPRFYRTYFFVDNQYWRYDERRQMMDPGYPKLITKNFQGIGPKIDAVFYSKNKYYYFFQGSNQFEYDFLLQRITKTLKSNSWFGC
Description: as §6

MMP-9 [12] = assay: Gelatin gel zymography of cell lysates; assay type: cell-based, human; conditions: cell lines in vitro, dose dependent
Description: (§7) Briefly, 50 μg of total protein was electrophoresed on 10% SDS-PAGE containing 0.1% gelatin as substrate. After washing with 1% Triton X-100 in 50 mM Tris/HCl, pH 7.5 for 1 hr to remove SDS, the gels were incubated overnight at 37° C. in 50 mM Tris/HCl, pH 7.5, containing 150 mM NaCl, 10 mM CaCl2 and 0.1% Triton X-100, prior to staining with simply blue safe stain. The gels were washed with deionized water at room temperature. […] Relevant band intensities were quantified by scanning densitometric analysis and normalized to cell number.
as §3

[13] = cited from earlier work; remark: listed apart in the source
MMP-9 [14] = assay: ELISA of MMP-9 protein in pancreatic cancer cell lines; assay type: cell-based, human; conditions: highest concentration (5 mM), both cell lines
Description: Enzyme-Linked ImmunoSorbent Assay (ELISA): The NIMP-9 protein level was determined using Human total MMP-9 DuoSet kit (R&D systems, Emeryville, CA) following the manufacturer's instruction. Ten microgram of total protein was aliquoted in each well and the MMP-9 concentration was determined by the colorimetric method. […] Since MMP-9 plays a central role in pancreatic cancer invasion, MMP-9 mRNA and protein levels were examined in both cell lines.

[15] = in vivo; cited from earlier work
[16] = tested on: pancreatic cancer cell lines; assay: Cell migration assay (wound healing); assay type: cell-based, human
Description: Cell Migration Assay: Cell migration assay is a classical wound healing assay (25). For this assay, cells were cultured in 10 cm petri dishes until they were completely confluent. […] Five random fields were selected and pictures were taken using an inverted microscope. The average area (mm 2) of the gap between the cell layers was calculated using IPLab imaging software (BD Biosciences-Bioimaging, Rockville, MD). […] For the migration assay, a wound healing assay was used (described above in Example 1).

MMP-9 [17] = assay: Zymography for MMP-9 in primary orthotopic tumors; assay type: in vivo, mice; conditions: tumors harvested day 30
Description: as §7

MMP-9 [18] = assay: ELISA of MMP-9 protein in primary orthotopic tumors; assay type: in vivo, mice; conditions: tumors harvested day 30
Description: Enzyme-Linked ImmunoSorbent Assay (ELISA): The NIMP-9 protein level was determined using Human total MMP-9 DuoSet kit (R&D systems, Emeryville, CA) following the manufacturer's instruction. Ten microgram of total protein was aliquoted in each well and the MMP-9 concentration was determined by the colorimetric method.

intracellular cystine = conditions: cited from earlier work
MMPs [19] = tested on: T11, MMPs; assay: MMP profiling, summary over the whole MMP panel; assay type: biochemical
T11 construct: rows headed: anti-MMP activity, IC50 range
Description: as §6, §3

MMPs [20] = tested on: T12, MMPs; assay: MMP profiling, summary over the whole MMP panel; assay type: biochemical; conditions: MMP-1 to MMP-14 of Table 1; read-out: IC50 against each MMP enzymatic activity (span over the panel)
T12 construct: rows headed: IC50 against each MMP enzymatic activity (span over the panel)
Description: as §6, §3

MMPs [21] = assay: MMP activity in primary orthotopic tumors; assay type: in vivo, mice; conditions: H5766T and MIA-PaCa2 tumors, 100 and 250 mg/Kg, day 30
Description: as §5

MMPs [22] = conditions: not tested in Table 1; cited from earlier work
[23] = delivery to the small intestine (WO 2007/089670)

## CNC(=O)[C@H](Cc1ccccc1)NC(=O)[C@H](CC(C)C)[C@H](CSc1cccs1)C(=O)NO [Batimastat]
[1]; in vivo, po
  oral bioavailability: poor oral bioavailability

## NCCS [Cysteamine]
[2]; mice
  dose tolerated without visible, biochemical or histological evidence of toxicity: up to 250 mg/kg/day
[2]; mouse, in vivo
  organ toxicity by histological examination: no organ toxicity
  serum ALT (liver function): no alteration
  serum Aldolase (muscle damage): no alteration
  serum creatinine (kidney function): no alteration
  serum creatinine kinase: no alteration
[2]; mouse, in vivo, 250 mg/kg/day
  adverse effects (general appearance, body weight, muscle damage, serum enzymes, serum creatinine): no adverse effects
MMP-14 [3]
  mRNA of MMP-14: modest increase; also recorded: modestly upregulated
MMP-12 [4]
  mRNA of MMP-12: modest increase; also recorded: modestly upregulated
[5]; all ten pancreatic cancer cell lines, 24 hours
  lowest concentration that significantly inhibited cell invasion: 0.05 mM
[5]; discussion
  concentration that sufficiently inhibited cancer cell invasion in vitro: 50 µM
MMP-9 [6]
  mRNA level of MMP-9: modestly increased; also recorded: modestly to moderately upregulated
H5766T tumor; 100 mg/kg/day, FIG. 1A
  mouse survival time: significantly prolonged
H5766T tumor; 250 mg/kg/day s.c., day 30
  decrease in number of metastases: ~90%
H5766T tumor; 250 mg/kg/day s.c., day 30 (control 34)
  number of metastases: 3.6
H5766T tumor; 100 and 250 mg/kg/day
  ascites in peritoneal cavity: no mice developed ascites
H5766T tumor; dose-dependent, day 30
  number of metastatic nodules: significantly decreased
H5766T tumor; s.c. twice daily from day 4, day 30
  size and weight of the primary tumor vs control: did not show any difference
MIA-PaCa2 tumor; MIA-PaCa2, 100 mg/kg/day, FIG. 1B
  mouse survival time: significantly prolonged
MIA-PaCa2 tumor; MIA-PaCa2, 100 and 250 mg/kg/day
  ascites in peritoneal cavity: no mice developed ascites
MIA-PaCa2 tumor; MIA-PaCa2, dose-dependent, day 30
  number of metastatic nodules: significantly decreased
MIA-PaCa2 tumor; MIA-PaCa2, highest dose (250 mg/kg/day), day 30
  decrease in total weight of metastatic nodules: ~90%
MIA-PaCa2 tumor; MIA-PaCa2, s.c. twice daily from day 4, day 30
  size and weight of the primary tumor vs control: did not show any difference
MMP-9 [7]
  mRNA level of MMP-9 in primary tumors: did not affect
MMPs [8]
  MMP activity in pancreatic cancer cell lines: inhibited
MMP-9 [9]
  IC50: 200 µM
MMP-8
  IC50: 240 µM
MMP-10
  IC50: 310 µM
MMP-13
  IC50: 460 µM
MMP-7
  IC50: 40 µM
MMP-14 [10]
  IC50: 91 µM
MMP-2
  IC50: 38 µM
MMP-3
  IC50: 330 µM
MMP-1
  IC50: 290 µM
MMP-12 [11]
  IC50: 60 µM
MMP-9 [12]
  zymographic gelatin hydrolyzing activity, pro and active MMP-9: decreased significantly; also recorded: dose dependent decrease
[13]; [23]
  AUC: increases AUC
[13]; oral, every 6 hours, 60 to 90 mg/kg of body weight per day
  cysteamine plasma level: ≤ 50 µM
MMP-9 [14]
  protein level of MMP-9: modestly increased; also recorded: modestly to moderately upregulated
[15]
  adverse effects in subjects: only gastrointestinal symptoms
[16]; all ten cell lines, 24 hours
  concentration at which cell migration was significantly inhibited: ≥ 0.05 mM
[16]; discussion
  concentration that sufficiently inhibited cancer cell migration in vitro: 50 µM
MMP-9 [17]
  gelatinase activity, zymography for MMP-9, primary tumors: dose dependent decrease
MMP-9 [18]
  protein level of MMP-9 in primary tumors: did not affect
Intracellular cystine; [23]
  time to decrease in leukocyte cystine: within an hour
Intracellular cystine; taken regularly, circulating white blood cells
  depletion of intracellular cystine: up to 90%
MMPs [19]
  anti-MMP activity, IC50 range: high μM range
MMPs [20]
  IC50: 38 to 460 µM
MMPs [21]
  MMPs activity in primary orthotopic tumors: decreased

## CNC(=O)[C@@H](NC(=O)[C@H](CC(C)C)[C@H](O)C(=O)NO)C(C)(C)C [marimastat]
[1]; higher dosage, patients with breast cancer metastasis
  clinical toxicity: high musculoskeletal toxicities
MMPs [22]
  anti-MMP activity, IC50 range: nM to low μM
